Test results published in patent US8030354B2, “Substituted biphenyl GPR40 modulators” (Amgen Inc., priority 2007, dated 2011).

Legend:
GPR40 [1] = molecular target: T1, GPR40 (Homo sapiens, UniProt O14842); assay: Inositol phosphate accumulation assay (A9_GPR40 cells); type: cell-based; design: expressed in transfected cells; host or cells: CHO cells stably transfected with GPR40 and aequorin; conditions: inositol phosphate assay, A9_GPR40 cells, 1 hour; read-out: IP3 EC50
Method: Briefly, the Aequorin assays were performed on doubly stable CHO cells expressing GPR40 and Aequorin DNA. […] The luminescence was recorded over a period of 20 seconds with a Microlumat luminometer (Berthold). […] The inositol phosphate assay was performed on an A9 cell line stably transfected with GPR40 (A9_GPR40). The cells were incubated with different concentrations of compounds and [^3H] inositol accumulation was measured after 1 hour.
An A9 cell line stably transfected with GPR40 (A9_GPR40) was used in IP accumulation assays. A9_GPR40 cells were plated in 96-well plates containing 20,000 cells/well in DMEM containing 10% FBS. After the cells attached to the well surface, the media was replaced with inositol free DMEM containing 10% dialyzed FBS and 1 μCi, mL ^3H-inositol and incubated for 16 hours. Compounds were diluted in HBSS/10 mM LiCl containing a desired amount of HSA and added directly to cells. Following 1 hour incubation at 37° C., the media was replaced with 100 μL of 20 mM formic acid to quench the reaction. 50 μL of the extract was then added to 100 μL of SPA beads, incubated overnight, and measured on a TopCount the following day.

GPR40 [2] = molecular target: T1, GPR40; assay: Cell-based aequorin assay (CHO cells stably expressing GPR40 and aequorin); design: expressed in transfected cells; host or cells: CHO cells stably transfected with GPR40 and aequorin; conditions: activation of human GPR40, CHO cells, 0.01% HSA
Summary of the method: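 CHO cells stably co-expressing GPR40 and aequorin, loaded with coelenterazine (1 ug/mL, 2 h, room temperature) in H/HBSS with 20 mM Hepes and 0.01% fatty acid-free HSA. Serially diluted compounds added; luminescence recorded over 20 s. EC50 from dose-response of maximum relative light units.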

T1 sequence (O14842 whole entry): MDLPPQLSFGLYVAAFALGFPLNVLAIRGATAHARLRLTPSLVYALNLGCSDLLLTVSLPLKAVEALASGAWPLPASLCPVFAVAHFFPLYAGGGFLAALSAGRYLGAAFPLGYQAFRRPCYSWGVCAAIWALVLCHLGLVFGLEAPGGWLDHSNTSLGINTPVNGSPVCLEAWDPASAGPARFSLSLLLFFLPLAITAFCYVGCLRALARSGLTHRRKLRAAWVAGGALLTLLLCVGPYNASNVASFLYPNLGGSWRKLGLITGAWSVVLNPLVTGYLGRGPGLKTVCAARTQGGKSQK

Structure (SMILES)	EC50 (GPR40 [1]) [nM]	EC50 (GPR40 [2]) [nM]
C=C(c1cc(COc2cccc([C@@H](CC(=O)O)CC3CC3)c2)ccc1-c1cc(OC)ccc1F)C(C)(C)C (single isomer, unassigned) [Example 69.15, (3R)-4-Cyclopropyl-3-(3-(((2-(1-(1,1-dimethylethyl)ethenyl)-2′-fluoro-5′-(methyloxy)-1,1′-biphenyl-4-yl)methyl)oxy)phenyl)butanoic acid or (3S)-4-cyclopropyl-3-(3-(((2-(1-(1,1-dimethylethyl)ethenyl)-2′-fluoro-5′-(methyloxy)-1,1′-biphenyl-4-yl)methyl)oxy)phenyl)butanoic acid]	10 to 100	100 to 1000
COc1ccc(F)c(-c2ccc(COc3cccc(C(CC(=O)O)C4CC4)c3)cc2C2CCCCCC2)c1 (single isomer, unassigned) [Example 66.2, (3S)-3-(3-(((2-Cycloheptyl-2′-fluoro-5′-(methyloxy)-1,1′-biphenyl-4-yl)methyl)oxy)phenyl)-3-cyclopropylpropanoic acid or (3R)-3-(3-(((2-cycloheptyl-2′-fluoro-5′-(methyloxy)-1,1′-biphenyl-4-yl)methyl)oxy)phenyl)-3-cyclopropylpropanoic acid]	10 to 100	100 to 1000
COc1ccc(F)c(-c2ccc(COc3cccc(C(CC(=O)O)CC4CC4)c3)cc2N2CCCCCC2)c1 (single isomer, unassigned) [Example 69.29, (3R)-3-(3-(((2-(1-Azepanyl)-2′-fluoro-5′-(methyloxy)-1,1′-biphenyl-4-yl)methyl)oxy)phenyl)-4-cyclopropylbutanoic acid or (3S)-3-(3-(((2-(1-azepanyl)-2′-fluoro-5′-(methyloxy)-1,1′-biphenyl-4-yl)methyl)oxy)phenyl)-4-cyclopropylbutanoic acid]	100 to 1000	100 to 1000
COc1ccc(F)c(-c2ccc(COc3cccc(C(CC(=O)O)C4CC4)c3F)cc2CC(C)(C)C)c1 (single isomer, unassigned) [Example 83.15, (3S)-3-Cyclopropyl-3-(3-(((2-(2,2-dimethylpropyl)-2′-fluoro-5′-(methyloxy)-1,1′-biphenyl-4-yl)methyl)oxy)-2-fluorophenyl)propanoic acid or (3R)-3-cyclopropyl-3-(3-(((2-(2,2-dimethylpropyl)-2′-fluoro-5′-(methyloxy)-1,1′-biphenyl-4-yl)methyl)oxy)-2-fluorophenyl)propanoic acid]	< 10	100 to 1000
COc1ccc(F)c(-c2ccc(COc3cccc([C@@H](CC(=O)O)[C@@H]4C[C@H]4C)c3)cc2C(C)(C)C)c1 (single isomer, unassigned) [Example 93.1]	10 to 100	100 to 1000
CC1(C)CCC=C1c1cc(COc2cccc([C@@H](CC(=O)O)C3CC3)c2)ccc1-c1cc(C(F)F)ccc1F (single isomer, unassigned) [Example 66.50, (3S)-3-Cyclopropyl-3-(3-(((5′-(difluoromethyl)-2-(5,5-dimethyl-1-cyclopenten-1-yl)-2′-fluoro-1,1′-biphenyl-4-yl)methyl)oxy)phenyl)propanoic acid or (3R)-3-cyclopropyl-3-(3-(((5′-(difluoromethyl)-2-(5,5-dimethyl-1-cyclopenten-1-yl)-2′-fluoro-1,1′-biphenyl-4-yl)methyl)oxy)phenyl)propanoic acid]	100 to 1000	100 to 1000
COc1cccc(-c2ccc(COc3cccc(C(CC(=O)O)C4CCC4)c3)cc2C(C)(C)C)c1 (single isomer, unassigned) [Example 70.1, (3S)-3-Cyclobutyl-3-(3-(((2-(1,1-dimethylethyl)-3′-(methyloxy)-1,1′-biphenyl-4-yl)methyl)oxy)phenyl)propanoic acid or (3R)-3-cyclobutyl-3-(3-(((2-(1,1-dimethylethyl)-3′-(methyloxy)-1,1′-biphenyl-4-yl)methyl)oxy)phenyl)propanoic acid]	10 to 100	100 to 1000

Continued, values first:

EC50 (GPR40 [1]) [nM]	EC50 (GPR40 [2]) [nM]	Structure (SMILES)
100 to 1000	100 to 1000	CCCCOc1cc(COc2cccc([C@H](C)CC(=O)O)c2)ccc1-c1cccc(OC)c1 (single isomer, unassigned) [Example 20, (3R)-3-(3-(((2-(Butyloxy)-3′-(methyloxy)-1,1′-biphenyl-4-yl)methyl)oxy)phenyl)butanoic acid or (3S)-3-(3-(((2-(butyloxy)-3′-(methyloxy)-1,1′-biphenyl-4-yl)methyl)oxy)phenyl)butanoic acid]
10 to 100	100 to 1000	CCC(CC(=O)O)c1cc(OCc2ccc(-c3cc(OC)ccc3F)c(C3CCCC3(C)C)c2)ccc1F (single isomer, unassigned) [Example 76.3]
< 10	100 to 1000	COc1ccc(F)c(-c2ccc(COc3cccc([C@@H](CC(=O)O)C4CC4)c3)cc2[C@@H](OCc2ccccc2)C(C)(C)C)c1 (single isomer, unassigned) [Example 66.28]
< 10	100 to 1000	CCC(CC(=O)O)c1cccc(OCc2ccc(-c3cc(OC)ccc3F)c(C(C)C(C)(C)C)c2)c1F (single isomer, unassigned) [Example 77.5]
10 to 100	100 to 1000	CCC(CC(=O)O)c1cc(OCc2ccc(-c3cc(OC)ccc3F)c(C3=CCCC3(C)C)c2)cc(C(F)(F)F)c1 (single isomer, unassigned) [Example 91, (3R)-3-(3-(((2-(5,5-Dimethyl-1-cyclopenten-1-yl)-2′-fluoro-5′-(methyloxy)-1,1′-biphenyl-4-yl)methyl)oxy)-5-(trifluoromethyl)phenyl)pentanoic acid or (3S)-3-(3-(((2-(5,5-dimethyl-1-cyclopenten-1-yl)-2′-fluoro-5′-(methyloxy)-1,1′-biphenyl-4-yl)methyl)oxy)-5-(trifluoromethyl)phenyl)pentanoic acid]
10 to 100	100 to 1000	CCC(CC(=O)O)c1cc(OCc2ccc(-c3cc(OC)ccc3F)c(C3=CCCC3(C)C)c2)ccc1F (single isomer, unassigned) [Example 76.1, (3R)-3-(5-(((2-(5,5-Dimethyl-1-cyclopenten-1-yl)-2′-fluoro-5′-(methyloxy)-1,1′-biphenyl-4-yl)methyl)oxy)-2-fluorophenyl)pentanoic acid or (3S)-3-(5-(((2-(5,5-dimethyl-1-cyclopenten-1-yl)-2′-fluoro-5′-(methyloxy)-1,1′-biphenyl-4-yl)methyl)oxy)-2-fluorophenyl)pentanoic acid]
1000 to 10000	100 to 1000	CC[C@H](CC(=O)O)c1cccc(SCc2ccc(-c3cc(OC)ccc3F)c([C@H]3CCCC3(C)C)c2)c1 (single isomer, unassigned) [Example 82]
< 10	100 to 1000	CCC(CC(=O)O)c1cccc(OCc2ccc(-c3cc(OC)ncc3F)c(C(O)(C(C)(C)C)C(C)(C)C)c2)c1F (single isomer, unassigned) [Example 77.11, (3R)-3-(3-(4-(5-Fluoro-2-methoxypyridin-4-yl)-3-(3-hydroxy-2,2,4,4-tetramethylpentan-3-yl)benzyloxy)-2-fluorophenyl)pentanoic acid or (3R)-3-(3-(4-(5-fluoro-2-methoxypyridin-4-yl)-3-(3-hydroxy-2,2,4,4-tetramethylpentan-3-yl)benzyloxy)-2-fluorophenyl)pentanoic acid]
